The results in this text go back to ChEMBL document CHEMBL4265961, “Efficient optimization of pyrazolo[3,4-d]pyrimidines derivatives as c-Src kinase inhibitors in neuroblastoma treatment” (Bioorg Med Chem Lett, 2018).

As a reminder, the IC50 is the concentration that inhibits the measured activity by half. Higher therefore signals weaker potency in that assay. A word on the solubility: it is how much of the substance goes into solution per volume. Low readings indicate a poorly soluble substance, high ones a readily soluble substance. In general, Papp refers to a coefficient for how fast a substance crosses the barrier.

Data set [1] can be described thus: Metabolic stability in human liver microsomes after 60 mins in presence of NADPH by UV/LC-MS analysis. It counts as ADME, microsome. To be noted: read-out: Stability.
Data set [2] relates to SH-SY5Y. As to the kind of experiment: Antiproliferative activity against human SH-SY5Y cells after 72 hrs by nucleo cell counting method.
Data set [3] has as its system SH-SY5Y. In words: Antiproliferative activity against human SH-SY5Y cells at 1 to 10 uM after 72 hrs by nucleo cell counting method. It counts as functional, cell-based.
The subject of data set [4] is SH-SY5Y. In words: Cell cycle arrest in human SH-SY5Y cells assessed as accumulation at G1 phase after 48 hrs by propidium iodide staining based flow cytometry. It counts as functional. In general terms: Flow cytometry measures light scatter and fluorescence of single cells or particles in a stream.
The nature of data set [5]: Aqueous solubility in water at 1 mg after 24 hrs at 20 degC by UV/LC-MS analysis. It counts as physicochemical.
The nature of data set [6]: Apparent permeability of the compound after 5 hrs by PAMPA. The data set is classed as ADME. (In PAMPA a lipid-coated filter parts donor from acceptor wells.)

Values after ≈ are worked out from the molar mass of the structure shown. Active and inactive are the calls of the source. The calls are words filed in the database; no cut-off is given here.

With `OCCNc1nc(Nc2cc(O)ccc2Cl)c2cnn(CC(Cl)c3ccccc3)c2n1` (stereo not drawn), in data set [1], the remaining at 1 h stood at 97.2%. The IC50 with SH-SY5Y [2] is 3.1 µM. In addition, the outcome with SH-SY5Y [3] was Active. The Activity entry in the data set on SH-SY5Y [4] is “Dose-dependent effect”. For the same molecule, the solubility at 24 h in data set [5] is 0.042 µg/mL (≈ 0.0914 µM). In data set [6], the Papp at 5 h came to 2.7 ×10⁻⁶ cm/s.
Regarding `CSc1nc(Nc2cc(O)ccc2Cl)c2cnn(CC(C)c3ccccc3)c2n1` (stereo not drawn), in data set [1], the remaining at 1 h came to 92.7%. The IC50 with SH-SY5Y [2] is 6.7 µM. Also, in the data set on SH-SY5Y [3], the result was Active. In addition, in data set [6], the apparent permeability coefficient (Papp) at 5 h was found to be 8.33 ×10⁻⁶ cm/s.
Consider `CC(Cn1ncc2c(Nc3cc(O)ccc3Cl)nc(NCCN)nc21)c1ccccc1` (stereo not drawn), for which the remaining at 1 h in data set [1] stood at 98.4%. This molecule also yielded a solubility at 24 h in data set [5] of 0.1 µg/mL (≈ 0.228 µM). Also, the Papp at 5 h in data set [6] stood at 2.2 ×10⁻⁶ cm/s.
The corresponding values for `CC(Cn1ncc2c(Nc3cc(O)ccc3Cl)nc(NCCO)nc21)c1ccccc1` (stereo not drawn) are 97.9%, 0.103 µg/mL (≈ 0.235 µM) and 0.1 ×10⁻⁶ cm/s.
With `CC(Cn1ncc2c(Nc3cc(O)ccc3Cl)nc(SCCN3CCOCC3)nc21)c1ccccc1` (stereo not drawn), in data set [1], the remaining at 1 h was 97.9%. Moreover, the solubility at 24 h in data set [5] was 0.031 µg/mL (≈ 0.059 µM). In data set [6], the apparent permeability (Papp) at 5 h is 11.2 ×10⁻⁶ cm/s.
As to `Oc1cccc(Nc2nc(SCCN3CCOCC3)nc3c2cnn3CC(Cl)c2ccccc2)c1` (stereo not drawn), the remaining at 1 h in data set [1] is 98.7%. The solubility at 24 h in data set [5] was determined as 0.197 µg/mL (≈ 0.385 µM). Also, the Papp at 5 h in data set [6] was determined as 4.44 ×10⁻⁶ cm/s.
`CC(Cn1ncc2c(Nc3cccc(O)c3)nc(SCCN3CCOCC3)nc21)c1ccccc1` (stereo not drawn): in data set [1], the remaining at 1 h is 99%. The molecule also displayed a solubility at 24 h in data set [5] of 0.1 µg/mL (≈ 0.204 µM). Further, the Papp at 5 h in data set [6] came out at 6.81 ×10⁻⁶ cm/s.
`CC(C)Sc1nc(Nc2cccc(O)c2)c2cnn(CC(Cl)c3ccccc3)c2n1` (stereo not drawn): the remaining at 1 h in data set [1] was 93.5%.
As for `CSc1nc(Nc2cc(O)ccc2Cl)c2cnn(CC(Cl)c3ccccc3)c2n1` (stereo not drawn), in data set [1], the remaining at 1 h amounted to 96.4%. Also, the Papp at 5 h in data set [6] was 3.23 ×10⁻⁶ cm/s.
Turning to `CC(Cn1ncc2c(Nc3cccc(O)c3)nc(NCCO)nc21)c1ccccc1` (stereo not drawn), the remaining at 1 h in data set [1] turned out to be 99.4%. In data set [5], this molecule returned a solubility at 24 h of 134 µg/mL (≈ 332 µM). In addition, the apparent permeability coefficient (Papp) at 5 h in data set [6] is 0.2 ×10⁻⁶ cm/s.
With `Oc1ccc(Cl)c(Nc2ncnc3c2cnn3CC(Cl)c2ccccc2)c1` (stereo not drawn), the remaining at 1 h in data set [1] was determined as 86.3%. In data set [5], the concentration in solution (solubility at 24 h) came to 0.053 µg/mL (≈ 0.132 µM). The Papp at 5 h in data set [6] came to 4.39 ×10⁻⁶ cm/s.
As for `Oc1ccc(Cl)c(Nc2nc(SCCN3CCOCC3)nc3c2cnn3CC(Cl)c2ccccc2)c1` (stereo not drawn), the remaining at 1 h in data set [1] came out at 96.9%. Further, in the data set with SH-SY5Y [2], half-maximal inhibition (IC50) was put at 6.6 µM. In addition, the result in the data set on SH-SY5Y [3] was Active. For the same molecule, in data set [6], the Papp at 5 h is 9.74 ×10⁻⁶ cm/s.
